Measurements reported in PubChem BioAssay AID588407 (The Scripps Research Institute Molecular Screening Center, 2011).
pEC50: −log10 of the molar value. Active and inactive are the calls of the source. The rule behind the calls is not given here.

These compounds were tested against Mu-type opioid receptor (Homo sapiens) + Delta-type opioid receptor (Homo sapiens) (UniProt P35372+P41143) (assay: OPRM1-OPRD1 heterodimer agonist potency – cell-based, luminescence, dose response (AID 588407;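 note: potency of agonists raising the heterodimer signal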)). Conditions: cells, MOR-DOR heterodimerization.
Chain of Mu-type opioid receptor (Homo sapiens) + Delta-type opioid receptor (Homo sapiens) (P35372 whole entry, looked up): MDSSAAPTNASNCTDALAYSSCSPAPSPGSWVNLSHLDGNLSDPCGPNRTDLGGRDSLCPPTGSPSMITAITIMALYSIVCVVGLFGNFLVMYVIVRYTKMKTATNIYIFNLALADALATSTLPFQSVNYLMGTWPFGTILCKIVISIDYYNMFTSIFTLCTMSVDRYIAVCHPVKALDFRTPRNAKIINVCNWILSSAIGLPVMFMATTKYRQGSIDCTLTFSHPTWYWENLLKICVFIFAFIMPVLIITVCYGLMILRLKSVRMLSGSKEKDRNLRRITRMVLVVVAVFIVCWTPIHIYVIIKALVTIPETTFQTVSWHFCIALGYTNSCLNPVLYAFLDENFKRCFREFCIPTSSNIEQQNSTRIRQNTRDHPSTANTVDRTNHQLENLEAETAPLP
Chain of Mu-type opioid receptor (Homo sapiens) + Delta-type opioid receptor (Homo sapiens) (P41143 whole entry, looked up): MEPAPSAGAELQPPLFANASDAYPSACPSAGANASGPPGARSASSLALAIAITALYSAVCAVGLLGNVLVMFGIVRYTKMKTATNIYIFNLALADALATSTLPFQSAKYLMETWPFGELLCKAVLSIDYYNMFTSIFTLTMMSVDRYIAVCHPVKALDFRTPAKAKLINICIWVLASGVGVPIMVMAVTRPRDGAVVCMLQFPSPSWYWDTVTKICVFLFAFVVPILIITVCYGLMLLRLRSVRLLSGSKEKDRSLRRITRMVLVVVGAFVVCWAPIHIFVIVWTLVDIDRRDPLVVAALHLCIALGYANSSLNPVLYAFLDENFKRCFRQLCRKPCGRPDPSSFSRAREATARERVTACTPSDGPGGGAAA
With `COc1cc(NC(=O)c2cccc(C)c2)ccc1NC(=O)c1cc2ccccc2o1` the EC50 was “inactive”. `COc1ccc(C(CNC(=O)C(Cc2ccccc2)NC(N)=O)N(C)C)cc1` (centres undefined) was tested, and the EC50 was “inactive”. `Cc1cc(C)cc(C(=O)N(CCc2ccccc2)C2=CC3CCC(C2)N3C)c1` (centres undefined) was tested, and the pEC50 was 5.23. `CC[C@@H](C)[C@@H]1CN([C@@H](CN2CCC[C@H]2CN2C(N)=NC[C@H]2C(C)C)C(C)C)C(=N)N1CCc1ccc(Cl)c(Cl)c1` gave a pEC50 of 5.63. For `O=S(=O)(NC1CC1)c1ccc(S(=O)(=O)N2CCCC3(CCCCC3)C2)cc1`, the EC50 was “inactive”. `Cc1cc(/C=C2/C(=O)NN(c3ccccc3)C2=O)c(C)n1-c1ccc(O)cc1` showed a pEC50 of 5.07. With `Cc1ccc2c(Cl)c(Cc3ccccc3)c(=S)[nH]c2n1` the EC50 was “inactive”. `Cc1nc2nc(C)n(CCN3CCOCC3)c(=O)c2c(-c2cccc([N+](=O)[O-])c2)c1C(=O)CCCCCCCCCCN1CCC(c2ccccc2)(c2ccccc2)CC1` was tested, and the EC50 was “inactive”. With `COC(=O)c1cc2c(n1S(=O)(=O)c1ccc(C)cc1)C(=O)C(=O)c1[nH]cc(C(=O)OCc3ccccc3)c1-2` the pEC50 was 5.59. `O=C(OC1C2CCC1C1CN(CCc3ccccc3)CC12)c1ccccc1` (centres undefined) was tested, and the EC50 was “inactive”. `COc1ccc(-c2nc(CN3CCC(C(=O)NC4CCCc5ccccc54)CC3)c(C)o2)cc1OC` (centres undefined) gave a pEC50 of 5.72. In the case of `Cc1ccc2c(C)c(C(=O)N(Cc3cccs3)C3CCS(=O)(=O)C3)oc2c1` (centres undefined), the pEC50 was 5.15. `CC(=O)C1CCC2C3CC=C4CC(SC(=N)N)CCC4(C)C3CCC12C` (centres undefined) was tested, and the pEC50 was 5.02. For `CCNS(=O)(=O)c1ccc(NC(=O)Nc2ccc3c(c2)OCO3)cc1`, the pEC50 was 5.03. `Clc1ccc2c(N/N=C/c3ccccc3Br)ccnc2c1` gave a pEC50 of 5.01. For `OC(CN1CCN(C(c2ccccc2)c2ccccc2)CC1)c1ccccc1` (centres undefined), the EC50 was “inactive”. For `COC(=O)C1=C(C)N(CCCC(=O)O)C(=O)NC1c1ccccc1OS(=O)(=O)c1ccc([N+](=O)[O-])cc1` (centres undefined), the pEC50 was 5.24. For `COc1ccc(C(C(=O)NC2CCCCC2)N(C(=O)Cc2c[nH]c3ccccc23)c2ccc(NC(C)=O)cc2)cc1OC` (centres undefined), the EC50 was > 92.5 µM (inactive). Compound `COC(=O)NCC(c1ccc2c(c1)OCO2)N1CCN(c2ccccc2)CC1` (centres undefined) has a pEC50 of 5.90. In the case of `O=C(Nc1ccccc1)c1ccc(NC2CCCCC2)c(S(=O)(=O)N2CCOCC2)c1`, the EC50 was “inactive”. Work on `OCC1(CC2CCCCO2)CCN(Cc2ccccc2-c2ccco2)CC1` (centres undefined) yielded a pEC50 of 5.32. `CC1[C@H]2Cc3ccc(O)cc3[C@]1(C)CCN2C` (some centres undefined) was tested, and the EC50 was “inactive”. Compound `COc1ccc(C(CNC(=O)c2ccc(S(=O)(=O)N(C)C)cc2)N(C)C)cc1` (centres undefined) has a pEC50 of 5.34. In the case of `Cc1cccc(NC(=S)NC(=O)CCc2ccccc2)c1`, the EC50 was > 92.5 µM (inactive). In the case of `COc1ccc(-n2cc(CNCc3cccnc3)c(-c3cccc(F)c3)n2)cc1`, the EC50 was “inactive”. Compound `CCN1CCN(Cc2ccc(NC(=O)c3ccc(C)c(NC(=O)c4c[nH]c5cc(C(F)(F)F)ccc5c4=O)c3)cc2C(F)(F)F)CC1` has a pEC50 of 5.02. For `Nc1nonc1C(=O)NCCNCc1c(OCc2ccccc2F)ccc2ccccc12`, the EC50 was “inactive”. `COc1ccc(/C=C/C(=O)NC(=S)NCCc2ccc(OC)c(OC)c2)cc1` was tested, and the pEC50 was 5.06. For `CCOC(=O)C1(Cc2ccccc2)CCN(Cc2cccn2-c2nccs2)CC1`, the EC50 was “inactive”. In the case of `CCCCCCCCCCOC(=O)Cn1c(COc2ccccc2C)[n+](C)c2ccccc21`, the EC50 was “inactive”. With `CN(C)C(CNC(C(=O)Nc1ccc([N+](=O)[O-])cc1Br)c1ccccc1)c1ccccc1` (centres undefined) the pEC50 was 5.01. With `Cc1cccc2cc(C(c3nnnn3Cc3ccccc3)N3CCN(C)CC3)c(=O)[nH]c12` (centres undefined) the EC50 was “inactive”. In the case of `CCOC(=O)C1(CCc2ccccc2)CCN(Cc2ccc(NC(C)=O)cc2)CC1`, the pEC50 was 6.64. `COc1ccc(-c2nn(-c3ccccc3C)cc2CNCc2cccnc2)cc1F` gave a pEC50 of 5.11. In the case of `O=C(NCCc1ccc(Cl)cc1)C1CCC(CNc2nc(=S)[nH]c3ccccc23)CC1` (centres undefined), the EC50 was > 92.5 µM (inactive). `COc1ccc(NS(=O)(=O)c2ccc(O)c(NC(=O)c3cc4c(C)nn(-c5ccc(F)cc5)c4s3)c2)cc1` was tested, and the EC50 was > 92.5 µM (inactive). With `CN1C2C=C(N(CCc3c[nH]c4ccccc34)C(=O)c3ccc(Cl)cc3)CC1CC2` (centres undefined) the pEC50 was 5.32. With `CCn1cc(CNCc2cn(-c3ccccc3C)nc2-c2ccc(OC)c(F)c2)cn1` the pEC50 was 5.76. `COc1ccc(C(CNC(=O)c2cncc(Br)c2)N(C)C)cc1` (centres undefined) gave a pEC50 of 5.69. In the case of `CCOC(=O)c1c(C)[nH]c(C(=O)OCC(O)=C(C#N)c2nc3ccccc3[nH]2)c1C`, the EC50 was > 92.5 µM (inactive). With `OC(CNCCC(c1ccccc1)c1ccccc1)COc1ccccc1` (centres undefined) the EC50 was “inactive”. With `CC(=O)CSc1ccc(-c2nc3cc(C)c(C)cc3[nH]2)cn1` the EC50 was “inactive”. For `Cc1cc(N2CCN(c3ccc([N+](=O)[O-])c4cccnc34)CC2)c2ccccc2n1`, the EC50 was > 92.5 µM (inactive). `O=c1c2ccc(Cl)cc2[nH]c(=S)n1Cc1cccnc1` showed a pEC50 of 5.07. `Cc1cc(Cl)ccc1OCC(=O)N[C@@H](Cc1ccccc1)c1nc2ccccc2[nH]1` was tested, and the EC50 was “inactive”. In the case of `Cc1ccc(Cl)cc1NC(=O)CNCC(c1ccccc1)N(C)C` (centres undefined), the pEC50 was 5.01. For `Cc1ccc(-n2cc(CNC(C)c3cnn(C)c3)c(-c3ccc(F)cc3)n2)cc1` (centres undefined), the pEC50 was 6.82. `CC(=O)NC(CC(=O)NCC(c1ccco1)N(C)C)c1ccccc1` (centres undefined) gave a pEC50 of 5.97. With `OCC1(CCc2ccccc2)CCN(Cc2cc(F)ccc2-n2cccn2)CC1` the pEC50 was 5.33. With `O=C(C=P(c1ccccc1)(c1ccccc1)c1ccccc1)c1ccccc1-c1ccccc1C(=O)C=P(c1ccccc1)(c1ccccc1)c1ccccc1` the EC50 was > 92.5 µM (inactive). `CN(C)C(CNC(=S)Nc1cccc(Cl)c1)c1ccccc1` (centres undefined) showed a pEC50 of 6.43. `C/C(=N/Nc1ccnc2cc(Cl)ccc12)c1ccc(N)cc1` was tested, and the EC50 was “inactive”. `COc1cccc(CC2(CO)CCCN(Cc3ccccc3-c3ccco3)C2)c1` (centres undefined) gave a pEC50 of 5.05. Work on `O=C(COc1ccc(/C=N/NC(=O)c2cc3ccccc3o2)cc1Br)Nc1ccccc1` yielded a pEC50 of 5.01. `CCOc1ccc(S(=O)(=O)Nc2cccc(C(=O)NCC(c3ccccc3)N(C)C)c2)cc1` (centres undefined) was tested, and the pEC50 was 5.11. Compound `CCc1ccc(NC(=O)Nc2ccc3c(c2)N(C)C(=O)CS3)cc1` has a pEC50 of 5.03. For `CN(C)CCCN(C(=O)c1ccc(S(=O)(=O)N2CCc3ccccc3C2)cc1)c1nc2ccc(F)cc2s1`, the pEC50 was 5.90. With `COc1ccccc1CN1CCN(C(CC(C)C)c2nnnn2Cc2cccs2)CC1` (centres undefined) the EC50 was “inactive”. In the case of `CN1C2C=C(N(CCc3ccccc3)C(=O)c3ccc(Cl)cc3)CC1CC2` (centres undefined), the EC50 was “inactive”. Compound `CN(C)CCCN(C(=O)c1ccc(S(=O)(=O)N2CCc3ccccc3C2)cc1)c1nc2c(F)cc(F)cc2s1` has a pEC50 of 6.07. `CC(C)n1ncc2c(C(=O)Nc3cccc(C#N)c3)cc(C3CC3)nc21` was tested, and the pEC50 was 5.44. `O=C(CSc1ccc(Cl)cc1)Nc1ccc(-c2nc3ccccc3[nH]2)cc1` was tested, and the EC50 was > 92.5 µM (inactive). Compound `CN(C)C(CNC(=O)NC1CCCCC1)c1cccnc1` (centres undefined) has a pEC50 of 5.89. `Cc1cccc(NC(=S)NCC(c2cccnc2)N(C)C)c1` (centres undefined) showed a pEC50 of 5.99. Compound `CN(C)C(CNC(=O)c1ccc(C(F)(F)F)cc1)c1ccco1` (centres undefined) has a pEC50 of 5.11. With `COc1ccc2c(Cl)c(-c3nnc(SCC(=O)c4ccccc4)n3C)sc2c1` the pEC50 was 6.03. Compound `O=C1C=C(c2c(O)ccc3ccccc23)c2ccccc2C1=O` has a pEC50 of 5.01. With `COc1ccc(CN2CCc3c([nH]c4ccccc34)C2)c(OC)c1C` the EC50 was “inactive”. With `CN(C)C(CNC(=O)c1cnc(Cl)c(Cl)c1)c1ccccc1` (centres undefined) the pEC50 was 6.26. For `Cc1cc(=O)oc2cc(NC(=O)C3COc4ccccc4O3)ccc12` (centres undefined), the EC50 was “inactive”. Compound `CN(C)C(CNC(=S)Nc1cccc(Cl)c1)c1cccnc1` (centres undefined) has a pEC50 of 6.39. `Cc1ccc(C2(O)CN(c3ccccc3C)C3=[N+]2CCS3)cc1` (centres undefined) was tested, and the pEC50 was 6.42. For `Cc1ccccc1N(CC(=O)N/N=C/c1ccc(F)cc1)C(=O)c1ccccc1`, the EC50 was “inactive”. In the case of `CN(C)CCCN(C(=O)c1ccc(Br)s1)c1nc2cc3c(cc2s1)OCCO3`, the EC50 was “inactive”. `Cc1cccc(NC(=S)NCC(c2cccnc2)N(C)C)c1C` (centres undefined) was tested, and the pEC50 was 6.52. With `CN(C)S(=O)(=O)c1ccc(-c2csc(N/N=C/c3ccc(O)cc3)n2)cc1` the pEC50 was 5.00. Compound `CCN(CC)Cc1cc(Nc2c3ccccc3nc3c4ccccc4n(C)c23)cc(CN(CC)CC)c1O` has a pEC50 of 5.75. In the case of `CCc1ccc2nc(N(CCCN(C)C)C(=O)c3ccc(S(=O)(=O)N4CCc5ccccc5C4)cc3)sc2c1`, the EC50 was “inactive”. Work on `CCOC(=O)C1(c2ccccc2)CCN(CCC(=O)Nc2ccc(F)cc2)CC1` yielded a pEC50 of 5.63. `Cc1ccc(C)c(-n2cc(CNCCc3cnccn3)c(-c3ccccc3)n2)c1` was tested, and the pEC50 was 5.00. `Cc1ccc(C)c(-n2cc(CNCCCn3cccn3)c(-c3ccccc3)n2)c1` showed a pEC50 of 6.18. `COc1ccc(C(CNC(=O)CCc2ccsc2)N(C)C)cc1` (centres undefined) gave a pEC50 of 6.70. In the case of `CCOC(=O)C1(CC2CC2)CCN(Cc2cnc(-c3ccccc3C)nc2)CC1`, the EC50 was “inactive”. For `COc1cccc(C(=O)Nc2ccc3c(c2)C(=O)c2ccccc2C3=O)c1`, the pEC50 was 5.17. `COc1ccc(C(CNc2ncnc3sc(C)c(C)c23)N(C)C)cc1` (centres undefined) gave a pEC50 of 5.17. In the case of `COC(=O)CCCNC(=O)c1ccc(OC2CCN(CCc3ccccc3)CC2)cc1`, the EC50 was “inactive”. `CN(C)CCCN(C(=O)c1ccc(S(=O)(=O)N2CCCCCC2)cc1)c1nc2c(F)cc(F)cc2s1` showed a pEC50 of 5.23. With `CCc1ccc2nc(N(CCCN(C)C)C(=O)c3ccc(S(=O)(=O)N(C)C4CCCCC4)cc3)sc2c1` the EC50 was “inactive”. For `COc1cc(C2C(C#N)=C(N)N(c3sc4c(c3C#N)CCCC4)C3=C2C(=O)CC(C)(C)C3)cc(OC)c1OC` (centres undefined), the EC50 was “inactive”. For `CCN1CCN(S(=O)(=O)c2ccc(Cl)c(C(=O)N(CCc3ccccc3)Cc3ccccc3)c2)CC1`, the EC50 was “inactive”. Work on `Cc1ccc(CSCC(=O)N/N=C/c2sccc2C)cc1` yielded a pEC50 of 5.22. For `CCOC(=O)C1(CC2CCCCO2)CCN(Cc2ccc(OC)cc2F)CC1` (centres undefined), the EC50 was “inactive”. In the case of `Cc1c(CCOC(=O)c2ccccc2)sc[n+]1CC(=O)c1ccc(Br)cc1`, the EC50 was “inactive”. Work on `CN1CCN(c2ccc(NC(=O)c3ccc(-c4ccc(Br)cc4)o3)cc2)CC1` yielded a pEC50 of 5.72. For `CCCc1nc2c(=O)n(C)c(=O)nc-2n(C)n1`, the EC50 was > 92.5 µM (inactive). With `COC(=O)C1=CO[C@@H](C)[C@@H]2CN(CCc3c[nH]c4ccccc34)CC[C@H]12` the pEC50 was 5.39. `COCCN(C(=O)C1CC(=O)N(Cc2ccccc2)C1)c1nc(-c2ccc([N+](=O)[O-])cc2)cs1` (centres undefined) showed a pEC50 of 5.25. For `CCOC(=O)C1(Cc2ccccc2)CCN(Cc2cccn2-c2cccnc2)CC1`, the EC50 was “inactive”. For `CCOC(=O)C1(CCOC)CCN(Cc2ccccc2-c2ccco2)CC1`, the pEC50 was 5.50.
